Laboratory results reported in patent publication US8278285B2, “Gastric carcinoma gene ZNF312b, a protein translated from the gene, and a diagnostic kit and a screening method for anticancer agents using the same” (Korea Research Institute of Bioscience and Biotechnology, priority 2007, dated 2012).

Legend:
ZNF312b gene = ZNF312b gene expression inhibition by siRNA; format: cell-based, human; conditions: compared among three siRNAs, FIG. 3
Source text: To investigate the cell proliferation capacity of the stomach cancer cell line after inhibiting the expression of ZNF312b gene, three kinds of siRNAs [si-ZNF312b-1: 5′-GCA CTC TCT GCA TCT CAA C-3′ (SEQ. ID. NO: 6), si-ZNF312b-2: 5′-GTG TGT GGA AAG GTC TTT A-3′ (SEQ. ID. NO: 7), and si-ZNF312b-3′: 5′-GCA GTT CAA GTG CAA TAT C-3′ (SEQ. ID. NO: 8)] comprising 19 nucleotides of ZNF312b nucleotide sequence (SEQ. ID. NO: 1) were constructed, which were used for the investigation of ZNF312b gene expression inhibition.

K-ras / ERK pathway = assay: Western blotting of cell proliferation signal pathway after ZNF312b inhibition; format: cell-based, human; conditions: stomach cancer cell line transfected with siRNA, FIG. 24
Protocol: First, lysis buffer A [20 mM HEPES (pH7.5), 150 mM NaCl, 1 mM EDTA, 2 mM EGTA, 1% Triton X-100, 10% glycerol, protease cocktail I, II (Sigma, USA)] was added to the cells, which stood at 4° C. for 20 minutes. The cell lysate was transferred into a new tube, followed by centrifugation at 4° C. at 15,000 rpm for 10 minutes to obtain protein. The cell lysate was heated at 95° C. for 10 minutes after adding 5× sample buffer, resulting in gel loading sample which proceeded to SDS PAGE gel electrophoresis. The protein bands separated according to their molecular weights by the above electrophoresis were transferred onto nitrocellulose membrane by using transfer kit (Bio-Rad, USA), followed by blocking for one hour with 5% skim milk. Next, each antibody [HA antibody for the detection of ZNF312b, and tubulin antibody for the detection of the control tubulin] was treated thereto at 4° C. for 12 hours. The membrane was washed with TBST buffer (0.2% Tween 20), and then treated with a secondary antibody for 1 hour. The membrane was washed with TBST and developed using HRP detection kit (AB frontier, Korea).
To investigate whether the signal pathway system involved in the cell proliferation of stomach cancer cell line was affected by inhibition of ZNF312b gene, the present inventors inhibited the expression of ZNF312b in stomach cancer cell line by transfecting the cell line with si-ZNF312b-1. […]

## si-ZNF312b-1: siRNA of 19 nucleotides of ZNF312b sequence, 5′-GCA CTC TCT GCA TCT CAA C-3′ (SEQ. ID. NO: 6) (sense GCACTCTCTGCATCTCAAC; listed as DNA, chemistry not given here)
ZNF312b gene
  ZNF312b gene expression inhibition: highest inhibition activity
K-ras / ERK pathway
  ERK pathway activity (phosphorylation of MEK1/2 and ERK1/2): inactivation of ERK pathway
  K-ras expression: decrease of K-ras expression
